Measured values reported in publication PMC10080078, “Use of phage display biopanning as a tool to design CAR-T cells against glioma stem cells” (Frontiers in Oncology, 2023).
Several values for one entry are separate records, joined by “and”; a condition that tells them apart may be missing. Equal entries are not always repeated. Where no end group is shown, it is not given here.

Columns and labels:
[1] = target: T1, N-cadherin extracellular domain, amino acids 160-724 (Homo sapiens, UniProt P19022); assay: Surface plasmon resonance, single cycle kinetics (Biacore T200); format: binding
T1 construct: Recombinant Human N-Cadherin extracellular domain, amino acids 160-724; purchased R&D Systems 1388NC050
T1 sequence (P19022 160-724): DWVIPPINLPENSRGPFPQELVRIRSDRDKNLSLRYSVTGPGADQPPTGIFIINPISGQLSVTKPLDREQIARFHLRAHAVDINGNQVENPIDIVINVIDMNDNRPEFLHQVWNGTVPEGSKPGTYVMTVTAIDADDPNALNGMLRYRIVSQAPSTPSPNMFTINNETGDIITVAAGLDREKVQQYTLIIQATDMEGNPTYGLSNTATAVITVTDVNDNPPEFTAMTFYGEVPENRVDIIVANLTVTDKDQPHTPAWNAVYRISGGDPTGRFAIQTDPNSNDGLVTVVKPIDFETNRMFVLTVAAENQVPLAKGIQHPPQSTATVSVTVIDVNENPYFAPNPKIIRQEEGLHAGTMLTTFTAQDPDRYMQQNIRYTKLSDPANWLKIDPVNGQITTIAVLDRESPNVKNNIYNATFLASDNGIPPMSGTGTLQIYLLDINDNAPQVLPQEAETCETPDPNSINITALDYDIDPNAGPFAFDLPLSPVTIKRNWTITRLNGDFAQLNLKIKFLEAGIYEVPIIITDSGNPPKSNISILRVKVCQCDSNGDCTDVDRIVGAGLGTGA
Procedure: The direct binding measurements between N-cadherin and EV peptide by surface plasmon resonance was performed by immobilizing N-cadherin protein (Recombinant Human N-Cadherin extracellular domain, amino acids 160-724, 1388NC050, R&D Systems, Minneapolis, MN) to a CM5 sensor chip surface docked in Biacore T200 (Cytiva, Marlborough, MA) at 25°C using an amine-coupling method. Prior to immobilization, the chip was primed and equilibrated with a running buffer containing 20 mM HEPES, pH 7.4, 1 mM TCEP, 2 mM CaCl2 and 150 mM NaCl at a flow rate of 10 µL/min. The carboxymethyl surface of the CM5 chip was manually activated for 7 minutes using a 1:1 ratio of 0.4 M 1-ethyl-3-(3-[…]) carbodiimide hydrochloride (EDC) and 0.1 M N-hydroxysuccinimide (NHS) to achieve a density of about 10,000 RU per flow cell. N-cadherin protein stock (1.12 µM) was diluted to 100 nM in 10 mM sodium acetate, pH 4.5, and manually injected over the surface at the same flow rate. […]
For kinetic titration experiments, the same running buffer was used except with the inclusion of 5% DMSO. […] Sensorgrams were solvent corrected, buffer referenced, and the on-rate, off-rate, and equilibrium binding constants were calculated from the sensorgrams by global fitting of a 1:1 binding model, using analysis software (version 3.0) provided with Biacore T200 instrument (Cytiva).

N-cadherin [2] = assay: Immunoblot of peptide pull-down; format: binding; settings: biotinylated peptide 40 μg on streptavidin agarose
Procedure: Cells were lysed using the IP Lysis Buffer Protocol (Pierce, Waltham, MA) as described by the manufacturer. Biotinylated peptides (EV-b and NT-b, 40 μg) were incubated with 100 μL of streptavidin agarose resin at 4°C for 1 hour on a rotator to generate the peptide-coupled streptavidin agarose resin. The protein samples were pre-cleared by incubation of 50 μL of NT-streptavidin agarose resins (4°C on rotator for 1 hour). After centrifugation, the pre-cleared samples were incubated with 150 μL of EV-coupled streptavidin agarose resin at 4°C overnight on rotator. After PBS wash, the resin was pelleted and sent for mass spectrometry analysis (see details in Supplementary Methods ) or eluted with 4x Laemmli Sample Buffer (Bio-Rad, Hercules, CA) containing 1X DTT reducing agent (dithiothreitol, Cell Signaling Technology, Danvers, MA) and boiled for SDS-PAGE. Pulled-down proteins were then separated with a Novex™ WedgeWell™ (ThermoFisher Scientific, Waltham, MA) and transferred to polyvinylidene fluoride (PVDF) membranes (Millipore, Burlington, MA). Membrane-transferred proteins were immunoblotted with an antibody recognizing N-cadherin (1/10000, NBP2-01498, Novus Biologicals, Littleton, CO) ( Supplemental Figure 2 ).

GSCs = settings: ref ([22], [23]), cited from earlier work; for targeting of GSCs in vitro: previously demonstrated
Procedure: We have previously isolated glioblastoma stem cell targeting peptides through a combination of in vitro and in vivo biopanning strategies ([22], [23]). In vitro biopanning was performed by screening a random 7 amino acid phage peptide library against differentiated stem cells and glioblastoma stem cells grown in culture to isolate GSC-specific targeting peptides ( Figure 1A ). Two types of in vivo biopanning were performed, one against mice with intracranial GBM xenografts ( Figure 1B ) and one with subcutaneous flank xenografts ( Figure 1C ). Two peptides were selected for use in subsequent e ... || Figure 1 Peptide selection. Schematic representation of phage display strategies used to isolate the GSC-targeting peptides E (AWEFYFP) and V (SSQPFWS). […] Authors’ elaboration based on prior data from ([22], [23]).

[3] = system: intracranial GBM xenografts; settings: ref ([22], [23]); cited from earlier work
From the text: (§1) Figure 1 Peptide selection. Schematic representation of phage display strategies used to isolate the GSC-targeting peptides E (AWEFYFP) and V (SSQPFWS). […] Authors’ elaboration based on prior data from ([22], [23]).

N-cadherin [4] = settings: by itself; ref manuscript under review; cited from earlier work
From the text: Our study has illustrated the utility and feasibility of designing novel antigen-binding domains for CAR-T cells by using two short peptides of just seven amino acids each to induce functional recognition of GSCs.

[5] = system: subcutaneous flank GBM xenografts; settings: ref ([22], [23]); cited from earlier work
From the text: as §1

[6] = target: T2, Recombinant Human N-Cadherin extracellular domain, amino acids 160-724 (human, UniProt P19022 160-724); assay: SPR; N-cadherin amine-coupled to CM5 chip (about 3500 RU), Biacore T200, 25°C; 20 mM HEPES pH 7.4, 1 mM TCEP, 2 mM CaCl2, 150 mM NaCl, 5% DMSO; single cycle kinetics, peptide 2 to 167 µM; 1:1 binding model; settings: both partners purified
T2 construct: N-cadherin (CDH2), human, extracellular domain, amino acids 160-724; also called recombinant N-cadherin; recombinant extracellular N-cadherin protein; source: bought: R&D Systems
T2 sequence (looked up): T1 sequence (P19022 160-724)

[7] = target: T2, Recombinant Human N-Cadherin …; assay: ELISA; plates coated with 2.5 μg/mL recombinant N-cadherin; biotinylated peptides at different concentrations in PBS-2%-BSA, 1 hour at RT; streptavidin-HRP; settings: both partners purified

## AWEFYFPGGGGSGGGGSGGGGSSSQPFWS [EV]
[1]; CM5 chip, 25°C, 20 mM HEPES pH 7.4, 1 mM TCEP, 2 mM CaCl2, 150 mM NaCl, 5% DMSO, EV 2 to 167 µM, 1:1 model, first run, read-out: on-rate (ka)
  kon: 2620 M⁻¹ s⁻¹

## FAYPEWFGGGGSGGGGSGGGGSPSWSFSQ [NT, reference compound]
[1]; identical condition, NT peptide in SPR is GGGSGGG, could not be fitted for reliable extraction of the KD
  SPR response / KD of NT peptide: did not exhibit significant resonance units
N-cadherin [2]
  N-cadherin antibody signal in peptide pull-down immunoblot: absent

## AWEFYFP [isolated from both the in vitro and intracranial in vivo biopanning]
GSCs
  targeting of GSCs in vitro: specificity for targeting GSCs in vitro
  enrichment in in vitro biopanning: one of the most enriched
[3]
  enrichment in in vivo biopanning, intracranial: one of the most enriched
N-cadherin [4]
  binding of single peptide E to N-cadherin: positive binding to N-cadherin

## SSQPFWS [V, isolated from the subcutaneous flank biopanning]
GSCs
  targeting of GSCs in vitro: specificity for targeting GSCs in vitro
[5]
  enrichment in in vivo biopanning on subcutaneous tumors: one of the most enriched

B1: EV peptide as used in surface plasmon resonance (peptide)
peptide: AWEFYFPGGGGSGGGGSGGGGSSSQPFWS
notes: dual peptide EV; the SPR methods say only 'EV peptide'; source: synthetic peptide
[6]
  Kd: 9.4 µM and 8.45 µM and 7.5 µM
  koff: 0.0196 s⁻¹

B2: biotinylated dual peptide EV (EV-b) (peptide)
peptide: AWEFYFPGGGGSGGGGSGGGGSSSQPFWS
modifications: also: biotin conjugated, position not given here
notes: 29 amino acids; also called EV-biotinylated peptide; source: synthetic peptide (LifeTein)
[7]
  binding result: binds
